Source: patent US5328913A, “Minoxidil analogs as inhibitors of cell proliferation and lysyl hydroxylase” (priority 1992, dated 1994)

Assays:
Format in all cases: cell-based
[1] = system: Lysyl Hydroxylations in Human Skin Fibroblasts; experiment: Hydroxylation of lysine residues in type I procollagen (Hyl/Lys); conditions: for Hyl/Lys: 72 hr
Experimental: (§1) Culture of human skin fibroblasts derived from an apparently normal adult were grown to confluent densities in Dulbecco's modified Eagle's medium supplemented with 10% (v/v) fetal calf serum. Thereafter, the medium was replaced with medium supplemented with 0.5% dialyzed fetal calf serum. The cultures were treated for 72 hr with 1 mM minoxidil, 3'- hydroxyminoxidil,or 4'-hydroxyminoxidil (Upjohn) dissolved in aqueous medium. In some experiments, minoxodil was dissolved in 95% (v/v) ethanol; […]. Cultures treated with ethanol only served as the control.
(§2) During the last 6 hr of treatment, cultures were labeled with 50 μCi of L-[2,3-^3 H]proline (35 Ci/mmol) and 50 μCi of L[U-^14 C]lysine ([…]) in 4 ml of lysine-free medium supplemented with 100 μM ascorbic acid. At the end of the incubation period, the medium was removed and mixed with 1 mM each of EDTA, N-ethylmaleimide, and phenylmethylsulfonylfluoride, and the collagenous proteins were precipitated with 30% (NH4)2 SO4. The cell layer was scraped and extracted with 0.5 M acetic acid containing the protease inhibitors as above. The cell extract was neutralized, and the collagenous proteins were precipitated as above. The (NH4)2 SO4 precipitate from the medium and cell layer was separately dissolved in 0.1% SDS/10 mM Tris-HCl (pH 6.8), reduced with dithiothreitol, and analyzed by electrophoresis on 4% SDS-polyacrylamide gels. The bands corresponding to the proαl(I) and proα2(I) chains from the two fractions were pooled and hydrolyzed with 6 M HCl for 24 hr at 110° C. Proline, hydroxyproline, lysine, and hydroxylysine in the hydrolysate were separated by HPLC (Takimitsa et al, J. Dermatol. 16:37 (1989)), and their radioactivity was determined in a Beckman liquid scintillation counter. To isolate type I procollagen the precipitate from the medium and cell layer was separately dissolved in 25 mM Tris-HCl, pH 7.5, containing 2 M urea and 1 mM each of EDTA, N-ethylmaleimide, and phenylmethylsulfonylfluoride, then chromatographed on a DEAE-cellulose column (Freiberger et al, J. Invest. Dermatol. 75:425 (1980)). The procollagen isolated from the two fractions was pooled, hydrolyzed, and analyzed as above.

[2] = system: Prolyl Hydroxylations in Human Skin Fibroblasts; experiment: Hydroxylation of proline residues in type I procollagen (Hyp/Pro); conditions: for Hyp/Pro: 72 hr
Experimental: as §1, with “The cultures were treated for 72 hr with 1 mM minoxidil, 3'- hydroxyminoxidil,or 4'-hydroxyminoxidil (Upjohn) dissolved in aqueous medium.” left out
as §2

[3] = system: Lysyl Hydroxylations in Human Skin Fibroblasts; experiment: Hydroxylation of lysine residues in type I procollagen (Hyl/Lys); conditions: 0.3 M, 72 hr
[4] = 1 mM, gel electrophoresis (Table V)
[5] = 1 mM, type I procollagen chains isolated by gel electrophoresis, mean ± range of two experiments (description table)

Which results are given for `Nc1cc(N2CCCCC2)nc(N)[n+]1[O-]` [Minoxidil]?
Hyl/Lys [1, 4]: 0.07 ± 0.02; Hyl/Lys [1, 5]: 0.07 ± 0.02; activity at 1000 µM ([1]; Homo sapiens, Skin fibroblast, 1 mM, 72 hr (Table V), read-out: ratio of hydroxylysine to lysine, percentage of control value): 32%; ratio of hydroxylysine to lysine, % of control ([1]; procollagen isolated by column chromatography, 4320 min): 50%; ratio of hydroxylysine to lysine, % of control value ([1]; procollagen isolated by gel chromatography (so in the source), 4320 min): 27%; Hyp/Pro [2, 4]: 0.92 ± .01; Hyp/Pro [2, 5]: 0.92 ± 0.01; Hyp/Pro ([2]; 0.3 M, type I procollagen chains isolated by gel electrophoresis, mean ± range (Table IV)): 0.91 ± .03; activity at 1000 µM ([2]; Homo sapiens, Skin fibroblast, 1 mM, 72 hr (Table V), read-out: ratio of hydroxyproline to proline, % control value): 100%; ratio of hydroxyproline to proline (in words) ([2]; Table IV text): remained unaltered; Hyl/Lys ([3]; type I procollagen chains isolated by gel electrophoresis, mean ± range (Table IV)): 0.08 ± 0.02; Hyl/Lys ([3]; type I procollagen isolated by column chromatography (Table IV)): 0.17
